Laboratory results taken from patent publication US20230117777A1, “METHYLATION OF MCL-1 COMPOUNDS” (Amgen Inc., priority 2020, published 2023).

Experiment: Moisture sorption profile (DVS)
Type: physicochemical
Conditions: by 95% RH; FIG. 6
Description: Moisture Sorption: Moisture sorption data was collected using a Surface Measurement Systems DVSAdvantage instrument. Equilibrium criteria were set at ±0.001% weight change in 10 minutes with a maximum equilibrium time of 360 minutes.

weight gain (moisture sorption profile): 3.3%
Compound: CO[C@]1(CN2CCN3CCCC[C@@H]3C2)/C=C/C[C@H](C)[C@@H](C)S(=O)(=O)NC(=O)c2ccc3c(c2)N(C[C@@H]2CC[C@H]21)C[C@@]1(CCCc2cc(Cl)ccc21)CO3 [crystalline hydrate form of compound A]
